Here are results for 17 compounds from ChEMBL document CHEMBL1152232, “Muscarinic acetylcholine receptor antagonists: SAR and optimization of tyrosine ureas” (Bioorg Med Chem Lett, 2008).

Chain of Muscarinic acetylcholine receptor M3 (P20309 whole entry): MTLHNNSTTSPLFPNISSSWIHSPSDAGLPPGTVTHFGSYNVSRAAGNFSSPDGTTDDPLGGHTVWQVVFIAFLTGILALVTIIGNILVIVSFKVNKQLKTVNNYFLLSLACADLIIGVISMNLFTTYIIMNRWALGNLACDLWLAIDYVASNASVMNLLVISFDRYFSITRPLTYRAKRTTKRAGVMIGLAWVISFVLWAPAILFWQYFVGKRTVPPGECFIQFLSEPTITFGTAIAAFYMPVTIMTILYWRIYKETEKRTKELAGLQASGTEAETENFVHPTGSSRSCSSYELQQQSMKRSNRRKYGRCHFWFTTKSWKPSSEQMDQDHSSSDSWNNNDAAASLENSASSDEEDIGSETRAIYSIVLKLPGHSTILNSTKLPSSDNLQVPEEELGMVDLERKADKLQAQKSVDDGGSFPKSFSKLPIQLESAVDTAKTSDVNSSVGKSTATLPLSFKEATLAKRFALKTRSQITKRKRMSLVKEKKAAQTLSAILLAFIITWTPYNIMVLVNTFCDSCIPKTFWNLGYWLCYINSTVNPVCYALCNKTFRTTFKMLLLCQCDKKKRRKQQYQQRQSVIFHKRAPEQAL

The first assay concerns the target T1, Muscarinic acetylcholine receptor M2 (Homo sapiens, UniProt P08172).
T1 sequence (P08172 whole entry): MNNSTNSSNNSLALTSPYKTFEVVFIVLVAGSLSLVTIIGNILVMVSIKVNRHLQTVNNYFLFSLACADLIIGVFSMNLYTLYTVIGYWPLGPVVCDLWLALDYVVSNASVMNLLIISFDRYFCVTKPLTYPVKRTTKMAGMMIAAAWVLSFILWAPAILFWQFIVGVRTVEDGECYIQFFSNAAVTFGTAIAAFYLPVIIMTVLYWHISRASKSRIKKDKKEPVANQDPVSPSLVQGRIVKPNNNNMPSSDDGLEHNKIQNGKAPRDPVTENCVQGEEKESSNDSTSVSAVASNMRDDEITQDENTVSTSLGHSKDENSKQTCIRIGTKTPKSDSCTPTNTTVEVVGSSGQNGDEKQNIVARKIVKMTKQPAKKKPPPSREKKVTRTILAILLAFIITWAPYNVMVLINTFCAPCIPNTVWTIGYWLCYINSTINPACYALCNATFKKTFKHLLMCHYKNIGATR
Description: Antagonist activity at human recombinant muscarinic M2 receptor expressed in CHO cells coexpressing chimeric G protein Gqi5 assessed as inhibition of acetylcholine-induced intracellular Ca2+ mobilization by FLIPR assay. Type of assay: functional, cell-based.
With `CCOC(=O)c1ccc(NC(=O)N[C@@H](Cc2ccc(C#N)cc2)C(=O)N[C@H]2CC[N+](C)(Cc3ccc4c(c3)OCO4)C2)cc1` (stereo partly specified), the IC50 is 12.6 nM.
Still for that read-out and setting: the figure for `CNC(=O)c1ccc(NC(=O)N[C@@H](Cc2ccc(O)cc2)C(=O)NC2CCN(Cc3ccc(C#N)cc3)C2)cc1` (stereo partly specified) is over 3160 nM; for `CCOC(=O)c1ccc(NC(=O)N[C@@H](Cc2ccc(Cl)cc2)C(=O)N[C@H]2CC[N+](C)(Cc3ccc4c(c3)OCO4)C2)cc1` (stereo partly specified) it is 6.31 nM.
Take `CCOC(=O)c1ccc(NC(=O)N[C@@H](Cc2ccc(N)cc2)C(=O)N[C@H]2CC[N+](C)(Cc3ccc4c(c3)OCO4)C2)cc1` (stereo partly specified): the 50% inhibitory concentration (IC50) is 15.8 nM.
Consider `CCOC(=O)c1ccc(NC(=O)N[C@@H](Cc2ccc(O)cc2)C(=O)N[C@H]2CC[N+](C)(Cc3ccc(O)cc3)C2)cc1` (stereo partly specified), for which the IC50 was 39.8 nM.
As for `O=C(Nc1ccc(C(=O)OCC2CC2)cc1)N[C@@H](Cc1ccc(O)cc1)C(=O)NC1CCN(Cc2ccc(O)cc2)C1` (stereo partly specified), the 50% inhibitory concentration (IC50) is 398 nM.
On to `CCOC(=O)c1ccc(NC(=O)N[C@@H](Cc2ccc(C(=O)c3ccccc3)cc2)C(=O)N[C@H]2CC[N+](C)(Cc3ccc4c(c3)OCO4)C2)cc1` (stereo partly specified), for which the half-inhibitory concentration (IC50) is 2.51 nM.
With `CCOC(=O)c1ccc(NC(=O)N[C@@H](Cc2ccccc2Cl)C(=O)N[C@H]2CC[N+](C)(Cc3ccc4c(c3)OCO4)C2)cc1` (stereo partly specified), the IC50 is 100 nM.
With `CC(C)COC(=O)c1ccc(NC(=O)N[C@@H](Cc2ccc(O)cc2)C(=O)NC2CCN(Cc3ccc(O)cc3)C2)cc1` (stereo partly specified), the IC50 was 1260 nM.
Regarding `CCOC(=O)c1ccc(NC(=O)N[C@@H](Cc2ccc(O)cc2)C(=O)N[C@H]2CCC[N+](C)(Cc3ccc(F)cc3)C2)cc1` (stereo partly specified), the IC50 was 2.51 nM.
Same read-out and setting: then `CCNC(=O)c1ccc(NC(=O)N[C@@H](Cc2ccc(O)cc2)C(=O)NC2CCN(Cc3ccc(C#N)cc3)C2)cc1` (stereo partly specified), with over 3160 nM.
Regarding `CCOC(=O)c1ccc(NC(=O)N[C@@H](Cc2ccc(F)cc2)C(=O)N[C@H]2CC[N+](C)(Cc3ccc4c(c3)OCO4)C2)cc1` (stereo partly specified), the IC50 was 10 nM.
Regarding `N#Cc1ccc(CN2CCC(NC(=O)[C@H](Cc3ccc(O)cc3)NC(=O)Nc3ccc(C(=O)N4CCOCC4)cc3)C2)cc1` (stereo partly specified), the half-inhibitory concentration (IC50) is over 3160 nM.
On the same count and under the same terms, the figure for `CCOC(=O)c1ccc(NC(=O)N[C@@H](Cc2ccc(O)cc2)C(=O)N[C@H]2CC[N+](C)(Cc3ccc4c(c3)OCO4)C2)cc1` (stereo partly specified) is 39.8 nM.
With `CCOC(=O)c1ccc(NC(=O)N[C@@H](Cc2ccc(OC)cc2)C(=O)N[C@H]2CC[N+](C)(Cc3ccc4c(c3)OCO4)C2)cc1` (stereo partly specified), the half-inhibitory concentration (IC50) is 5.01 nM.
Regarding `CCOC(=O)c1ccc(NC(=O)N[C@@H](Cc2ccc(C(F)(F)F)cc2)C(=O)N[C@H]2CC[N+](C)(Cc3ccc4c(c3)OCO4)C2)cc1` (stereo partly specified), the IC50 was 10 nM.
The same measure, in the same setting: then `N#Cc1ccc(CN2CCC(NC(=O)[C@H](Cc3ccc(O)cc3)NC(=O)Nc3ccc(C(=O)NCc4ccccc4)cc3)C2)cc1` (stereo partly specified), with over 3160 nM.

In the next assay the target is T2, Muscarinic acetylcholine receptor M1 (Homo sapiens, UniProt P11229).
T2 sequence (P11229 whole entry): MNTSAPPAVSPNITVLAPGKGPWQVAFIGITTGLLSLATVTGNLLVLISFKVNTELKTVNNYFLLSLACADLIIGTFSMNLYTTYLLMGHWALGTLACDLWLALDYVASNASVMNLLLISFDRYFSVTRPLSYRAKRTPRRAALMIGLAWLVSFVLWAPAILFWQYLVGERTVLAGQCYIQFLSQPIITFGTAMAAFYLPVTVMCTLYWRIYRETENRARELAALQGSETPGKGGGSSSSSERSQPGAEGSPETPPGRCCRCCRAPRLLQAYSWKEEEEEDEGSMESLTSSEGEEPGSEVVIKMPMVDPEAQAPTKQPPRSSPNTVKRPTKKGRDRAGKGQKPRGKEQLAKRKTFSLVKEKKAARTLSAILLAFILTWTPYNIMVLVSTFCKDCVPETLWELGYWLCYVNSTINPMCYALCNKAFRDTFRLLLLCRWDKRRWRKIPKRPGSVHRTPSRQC
As to the kind of experiment: Antagonist activity at human recombinant muscarinic M1 receptor expressed in CHO cells assessed as inhibition of acetylcholine-induced intracellular Ca2+ mobilization by FLIPR assay. Format: functional, cell-based.
Take `CCOC(=O)c1ccc(NC(=O)N[C@@H](Cc2ccc(C#N)cc2)C(=O)N[C@H]2CC[N+](C)(Cc3ccc4c(c3)OCO4)C2)cc1` (stereo partly specified): the half-inhibitory concentration (IC50) was 251 nM.
Same read-out and setting: the figure for `CNC(=O)c1ccc(NC(=O)N[C@@H](Cc2ccc(O)cc2)C(=O)NC2CCN(Cc3ccc(C#N)cc3)C2)cc1` (stereo partly specified) is over 3160 nM; for `CCOC(=O)c1ccc(NC(=O)N[C@@H](Cc2ccc(Cl)cc2)C(=O)N[C@H]2CC[N+](C)(Cc3ccc4c(c3)OCO4)C2)cc1` (stereo partly specified) it is 39.8 nM.
Same read-out and setting: then `CCOC(=O)c1ccc(NC(=O)N[C@@H](Cc2ccc(N)cc2)C(=O)N[C@H]2CC[N+](C)(Cc3ccc4c(c3)OCO4)C2)cc1` (stereo partly specified), with 1260 nM; and `CCOC(=O)c1ccc(NC(=O)N[C@@H](Cc2ccc(O)cc2)C(=O)N[C@H]2CC[N+](C)(Cc3ccc(O)cc3)C2)cc1` (stereo partly specified), with 251 nM; and `O=C(Nc1ccc(C(=O)OCC2CC2)cc1)N[C@@H](Cc1ccc(O)cc1)C(=O)NC1CCN(Cc2ccc(O)cc2)C1` (stereo partly specified), with 1000 nM.
Still for that read-out and setting: the figure for `CCOC(=O)c1ccc(NC(=O)N[C@@H](Cc2ccc(C(=O)c3ccccc3)cc2)C(=O)N[C@H]2CC[N+](C)(Cc3ccc4c(c3)OCO4)C2)cc1` (stereo partly specified) is 10 nM.
For the compound `CCOC(=O)c1ccc(NC(=O)N[C@@H](Cc2ccccc2Cl)C(=O)N[C@H]2CC[N+](C)(Cc3ccc4c(c3)OCO4)C2)cc1` (stereo partly specified), the half-inhibitory concentration (IC50) was 2000 nM.
Take `CC(C)COC(=O)c1ccc(NC(=O)N[C@@H](Cc2ccc(O)cc2)C(=O)NC2CCN(Cc3ccc(O)cc3)C2)cc1` (stereo partly specified): the 50% inhibitory concentration (IC50) was over 3160 nM.
Same read-out and setting: then `CCOC(=O)c1ccc(NC(=O)N[C@@H](Cc2ccc(O)cc2)C(=O)N[C@H]2CCC[N+](C)(Cc3ccc(F)cc3)C2)cc1` (stereo partly specified), with 100 nM.
For the compound `CCNC(=O)c1ccc(NC(=O)N[C@@H](Cc2ccc(O)cc2)C(=O)NC2CCN(Cc3ccc(C#N)cc3)C2)cc1` (stereo partly specified), the IC50 was over 3160 nM.
For `CCOC(=O)c1ccc(NC(=O)N[C@@H](Cc2ccc(F)cc2)C(=O)N[C@H]2CC[N+](C)(Cc3ccc4c(c3)OCO4)C2)cc1` (stereo partly specified), the IC50 was 100 nM.
On the same count and under the same terms, then `N#Cc1ccc(CN2CCC(NC(=O)[C@H](Cc3ccc(O)cc3)NC(=O)Nc3ccc(C(=O)N4CCOCC4)cc3)C2)cc1` (stereo partly specified), with over 3160 nM; and `CCOC(=O)c1ccc(NC(=O)N[C@@H](Cc2ccc(O)cc2)C(=O)N[C@H]2CC[N+](C)(Cc3ccc4c(c3)OCO4)C2)cc1` (stereo partly specified), with 158 nM; and `CCOC(=O)c1ccc(NC(=O)N[C@@H](Cc2ccc(OC)cc2)C(=O)N[C@H]2CC[N+](C)(Cc3ccc4c(c3)OCO4)C2)cc1` (stereo partly specified), with 79.4 nM.
As for `CCOC(=O)c1ccc(NC(=O)N[C@@H](Cc2ccc(C(F)(F)F)cc2)C(=O)N[C@H]2CC[N+](C)(Cc3ccc4c(c3)OCO4)C2)cc1` (stereo partly specified), the half-maximal inhibitory concentration (IC50) was 50.1 nM.
On the same count and under the same terms, then `N#Cc1ccc(CN2CCC(NC(=O)[C@H](Cc3ccc(O)cc3)NC(=O)Nc3ccc(C(=O)NCc4ccccc4)cc3)C2)cc1` (stereo partly specified), with over 3160 nM.

Another assay has as its target Muscarinic acetylcholine receptor M3 (Homo sapiens, UniProt P20309). Description: Antagonist activity at human recombinant muscarinic M3 receptor expressed in CHO cells assessed as inhibition of acetylcholine-induced intracellular Ca2+ mobilization by FLIPR assay. Format: functional, cell-based.
As to `CCOC(=O)c1ccc(NC(=O)N[C@@H](Cc2ccc(C#N)cc2)C(=O)N[C@H]2CC[N+](C)(Cc3ccc4c(c3)OCO4)C2)cc1` (stereo partly specified), the IC50 is 50.1 nM.
As for `CNC(=O)c1ccc(NC(=O)N[C@@H](Cc2ccc(O)cc2)C(=O)NC2CCN(Cc3ccc(C#N)cc3)C2)cc1` (stereo partly specified), the concentration for half-maximal inhibition (IC50) is 2510 nM.
In the case of `CCOC(=O)c1ccc(NC(=O)N[C@@H](Cc2ccc(Cl)cc2)C(=O)N[C@H]2CC[N+](C)(Cc3ccc4c(c3)OCO4)C2)cc1` (stereo partly specified), the IC50 was 10 nM.
Consider `CCOC(=O)c1ccc(NC(=O)N[C@@H](Cc2ccc(N)cc2)C(=O)N[C@H]2CC[N+](C)(Cc3ccc4c(c3)OCO4)C2)cc1` (stereo partly specified), for which the IC50 is 15.8 nM.
Same read-out and setting: the figure for `CCOC(=O)c1ccc(NC(=O)N[C@@H](Cc2ccc(O)cc2)C(=O)N[C@H]2CC[N+](C)(Cc3ccc(O)cc3)C2)cc1` (stereo partly specified) is 6.31 nM; for `O=C(Nc1ccc(C(=O)OCC2CC2)cc1)N[C@@H](Cc1ccc(O)cc1)C(=O)NC1CCN(Cc2ccc(O)cc2)C1` (stereo partly specified) it is 100 nM; for `CCOC(=O)c1ccc(NC(=O)N[C@@H](Cc2ccc(C(=O)c3ccccc3)cc2)C(=O)N[C@H]2CC[N+](C)(Cc3ccc4c(c3)OCO4)C2)cc1` (stereo partly specified) it is 12.6 nM.
On to `CCOC(=O)c1ccc(NC(=O)N[C@@H](Cc2ccccc2Cl)C(=O)N[C@H]2CC[N+](C)(Cc3ccc4c(c3)OCO4)C2)cc1` (stereo partly specified), for which the IC50 was 126 nM.
Same read-out and setting: then `CC(C)COC(=O)c1ccc(NC(=O)N[C@@H](Cc2ccc(O)cc2)C(=O)NC2CCN(Cc3ccc(O)cc3)C2)cc1` (stereo partly specified), with 251 nM; and `CCOC(=O)c1ccc(NC(=O)N[C@@H](Cc2ccc(O)cc2)C(=O)N[C@H]2CCC[N+](C)(Cc3ccc(F)cc3)C2)cc1` (stereo partly specified), with 2 nM; and `CCNC(=O)c1ccc(NC(=O)N[C@@H](Cc2ccc(O)cc2)C(=O)NC2CCN(Cc3ccc(C#N)cc3)C2)cc1` (stereo partly specified), with 316 nM.
`CCOC(=O)c1ccc(NC(=O)N[C@@H](Cc2ccc(F)cc2)C(=O)N[C@H]2CC[N+](C)(Cc3ccc4c(c3)OCO4)C2)cc1` (stereo partly specified): the IC50 was 15.8 nM.
As for `N#Cc1ccc(CN2CCC(NC(=O)[C@H](Cc3ccc(O)cc3)NC(=O)Nc3ccc(C(=O)N4CCOCC4)cc3)C2)cc1` (stereo partly specified), the IC50 is 1000 nM.
Still for that read-out and setting: then `CCOC(=O)c1ccc(NC(=O)N[C@@H](Cc2ccc(O)cc2)C(=O)N[C@H]2CC[N+](C)(Cc3ccc4c(c3)OCO4)C2)cc1` (stereo partly specified), with 6.31 nM; and `CCOC(=O)c1ccc(NC(=O)N[C@@H](Cc2ccc(OC)cc2)C(=O)N[C@H]2CC[N+](C)(Cc3ccc4c(c3)OCO4)C2)cc1` (stereo partly specified), with 39.8 nM.
Regarding `CCOC(=O)c1ccc(NC(=O)N[C@@H](Cc2ccc(C(F)(F)F)cc2)C(=O)N[C@H]2CC[N+](C)(Cc3ccc4c(c3)OCO4)C2)cc1` (stereo partly specified), the 50% inhibitory concentration (IC50) is 31.6 nM.
As for `N#Cc1ccc(CN2CCC(NC(=O)[C@H](Cc3ccc(O)cc3)NC(=O)Nc3ccc(C(=O)NCc4ccccc4)cc3)C2)cc1` (stereo partly specified), the IC50 was 1580 nM.
